Assay results reported in ChEMBL document CHEMBL1128241, “Molecular similarity matrices and quantitative structure-activity relationships: a case study with methodological implications” (J Med Chem, 1995).

test: Partition coefficient (logP); assay type: physicochemical; details: octanol/water

First: ClC(Cl)C(Cl)(Cl)Cl [PENTACHLOROETHANE]
Second: ClC(Cl)=C(Cl)Cl [TETRACHLOROETHYLENE]
The logP of the first is higher: 5.72 for the first, 1.27 for the second.

For `ClC=C(Cl)Cl` [TRICHLOROETHYLENE], the logP was 0.96.

same assay, conditions: octanol/water; read-out: logP

`ClC(Cl)Br` [BROMODICHLOROMETHANE] and `ClC(Br)Br` [DIBROMOCHLOROMETHANE] are within 0.2 log units of each other in logP: 2.67 for the first, 2.48 for the second.

Compared with `CCC(C)Br` (stereo not drawn), `CC(Br)CCl` (stereo not drawn) is lower in logP: 2.71 for the first, 2.16 for the second.

`C/C(Cl)=C/Cl` and `CC(C)=CCl` are within 0.2 log units of each other in logP: 1.79 for the first, 1.89 for the second.

`C=C(C)CCl` and `C=C(Cl)CCl` are within 0.2 log units of each other in logP: 1.89 for the first, 1.75 for the second.

`CCCCCCCCBr` and `CCCCCCCCCl` are within 0.2 log units of each other in logP: 4.87 for the first, 4.85 for the second.

Going from `CC(Cl)CCCl` (stereo not drawn) to `CC(Cl)CCl` (stereo not drawn), the logP falls from 2.28 to 2.02.

First: CCCCCCCl
Second: CCCCCCl
The logP of the first is higher: 3.65 for the first, 3.11 for the second.

Compared with `ClCC(Cl)(Cl)Cl`, `ClC(Cl)(Cl)Cl` [CARBON TETRACHLORIDE] is lower in logP: 3.05 for the first, 2.83 for the second.

Going from `CCC(C)CBr` (stereo not drawn) to `CC(C)CBr`, the logP falls from 3.12 to 2.58.

Compared with `C=C(CCl)CCl`, `ClCCl` [METHYLENE CHLORIDE] is lower in logP: 2.01 for the first, 1.26 for the second.

Compared with `ClCC(Cl)CCl` [1,2,3-TRICHLOROPROPANE], `ClCCCCl` is lower in logP: 2.01 for the first, 1.74 for the second.

First: CCC(C)(C)Br
Second: CC(C)(C)Br
The logP of the first is higher: 2.99 for the first, 2.45 for the second.

Compared with `Cl/C=C/Cl`, `Cl/C=C/CCl` [1,3-DICHLOROPROPENE] is higher in logP: 0.65 for the first, 1.19 for the second.

Going from `ClC(Cl)C(Cl)Cl` [1,1,2,2-TETRACHLOROETHANE] to `CC(Cl)Cl`, the logP falls from 2.66 to 1.8.

Going from `ClCCCBr` to `ClCCCCBr`, the logP rises from 1.88 to 2.42.

Compared with `BrC(Br)Br` [BROMOFORM], `FC(Cl)(Br)Br` is higher in logP: 2.38 for the first, 2.8 for the second.

Going from `CCCCBr` [1-BROMOBUTANE] to `CCCCCBr`, the logP rises from 2.71 to 3.25.

Compared with `CC(C)CCBr`, `CC(C)CCl` is lower in logP: 3.12 for the first, 2.44 for the second.

First: C=C(Cl)Cl [1,1-DICHLOROETHENE]
Second: ClCC=C(Cl)Cl
The logP of the first is lower: 1.21 for the first, 1.5 for the second.

`CC(Cl)C(C)Cl` (stereo not drawn) and `CCC(C)Cl` (stereo not drawn) are within 0.2 log units of each other in logP: 2.56 for the first, 2.57 for the second.

First: ClC(Cl)(Cl)C(Cl)(Cl)Cl [HEXACHLOROETHANE]
Second: CC(Cl)(Cl)Cl [TRICHLOROETHANE]
The logP of the first is higher: 4.62 for the first, 2.5 for the second.

First: ClCBr
Second: ClCCBr
The logP of the first is lower: 1.4 for the first, 1.62 for the second.

`CCBr` [BROMOETHANE] and `CC(C)=CBr` are within 0.2 log units of each other in logP: 1.63 for the first, 1.8 for the second.

`CC(C)(Cl)Cl` and `CC(C)(C)Cl` are within 0.2 log units of each other in logP: 2.34 for the first, 2.44 for the second.

First: FC(Cl)(Cl)Cl [TRICHLOROMONOFLUOROMETHANE]
Second: ClC(Cl)(Cl)Br
The logP of the first is lower: 2.29 for the first, 3.1 for the second.
